Test results reported in patent US20230084144A1, “THERAPEUTIC COMBINATIONS OF DRUGS AND METHODS OF USING THEM” (ConSynance Therapeutics, Inc., priority 2020, published 2023).
Read-outs that look alike come from different tables or passages of the source.

Key:
[1] = target: T1, Transporter, Dopamine (DAT) (Homo sapiens, UniProt Q01959); assay: Radioligand binding, Transporter, Dopamine (DAT) (Eurofin Discovery 220320); conditions: for DAT, %inhibition 10 nM: 10 nM compound; for inhibition at 0.1 µM / DAT, %inhibition 100 nM: 100 nM compound
T1 construct: host or cells: CHO-S cells
T1 sequence (Q01959 whole entry): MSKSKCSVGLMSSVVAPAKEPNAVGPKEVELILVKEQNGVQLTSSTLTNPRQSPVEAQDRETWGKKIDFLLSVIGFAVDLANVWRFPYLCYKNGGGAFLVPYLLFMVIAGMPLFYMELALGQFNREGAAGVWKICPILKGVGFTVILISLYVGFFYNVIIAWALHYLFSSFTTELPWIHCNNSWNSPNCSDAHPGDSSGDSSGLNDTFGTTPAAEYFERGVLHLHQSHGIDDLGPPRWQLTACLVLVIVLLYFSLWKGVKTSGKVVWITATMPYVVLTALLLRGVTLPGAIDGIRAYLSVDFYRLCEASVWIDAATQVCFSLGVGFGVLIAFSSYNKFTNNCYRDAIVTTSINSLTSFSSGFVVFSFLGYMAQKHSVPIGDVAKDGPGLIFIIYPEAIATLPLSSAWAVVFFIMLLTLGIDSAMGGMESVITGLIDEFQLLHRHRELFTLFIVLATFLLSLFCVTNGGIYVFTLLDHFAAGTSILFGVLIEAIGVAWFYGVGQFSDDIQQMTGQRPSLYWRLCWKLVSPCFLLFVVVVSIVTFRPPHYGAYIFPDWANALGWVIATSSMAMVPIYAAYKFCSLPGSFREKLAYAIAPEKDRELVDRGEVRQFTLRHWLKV

DAT = target: T2, DAT (Homo sapiens, UniProt Q01959); conditions: cited from earlier work
T2 construct: from tissue; host or cells: striatum of healthy male volunteers, in vivo PET
T2 sequence (Q01959 whole entry): as above

PWS patients = conditions: standard mg/day dosing, cited from earlier work
MCHR1 [2] = target: T3, MCHR1 (Homo sapiens, UniProt Q99705); assay: MCHR1 pharmacology of the N-acetyl metabolite
Source text: By substituting the hydrogens with deuterium on the carbon(s) adjacent to the nitrogen which is acetylated (see for example, Examples 5 to 7), acetylation process can be slowed down to reduce the formation of this metabolite.
Target sequence in this assay (Q99705 whole entry, species assumed): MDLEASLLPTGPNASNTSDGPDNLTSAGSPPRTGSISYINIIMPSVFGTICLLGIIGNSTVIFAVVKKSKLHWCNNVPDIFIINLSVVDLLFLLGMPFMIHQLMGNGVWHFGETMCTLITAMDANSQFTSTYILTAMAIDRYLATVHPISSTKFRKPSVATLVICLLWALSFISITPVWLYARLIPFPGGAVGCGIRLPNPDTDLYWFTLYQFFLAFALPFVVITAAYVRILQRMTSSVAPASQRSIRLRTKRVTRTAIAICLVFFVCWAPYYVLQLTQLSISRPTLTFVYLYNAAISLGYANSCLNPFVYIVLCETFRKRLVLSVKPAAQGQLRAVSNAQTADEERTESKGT

MCHR1 [3] = target: T3, MCHR1; parameters: host or cells: CHO-K1 cells; conditions: radioligand, Historical Values; cited from earlier work
Target sequence in this assay (Q99705 whole entry): as the sequence (Q99705 whole entry, species assumed) above

NET = NET (Homo sapiens, UniProt P23975); conditions: at efficacious doses; cited from earlier work
Chain of NET (P23975 whole entry): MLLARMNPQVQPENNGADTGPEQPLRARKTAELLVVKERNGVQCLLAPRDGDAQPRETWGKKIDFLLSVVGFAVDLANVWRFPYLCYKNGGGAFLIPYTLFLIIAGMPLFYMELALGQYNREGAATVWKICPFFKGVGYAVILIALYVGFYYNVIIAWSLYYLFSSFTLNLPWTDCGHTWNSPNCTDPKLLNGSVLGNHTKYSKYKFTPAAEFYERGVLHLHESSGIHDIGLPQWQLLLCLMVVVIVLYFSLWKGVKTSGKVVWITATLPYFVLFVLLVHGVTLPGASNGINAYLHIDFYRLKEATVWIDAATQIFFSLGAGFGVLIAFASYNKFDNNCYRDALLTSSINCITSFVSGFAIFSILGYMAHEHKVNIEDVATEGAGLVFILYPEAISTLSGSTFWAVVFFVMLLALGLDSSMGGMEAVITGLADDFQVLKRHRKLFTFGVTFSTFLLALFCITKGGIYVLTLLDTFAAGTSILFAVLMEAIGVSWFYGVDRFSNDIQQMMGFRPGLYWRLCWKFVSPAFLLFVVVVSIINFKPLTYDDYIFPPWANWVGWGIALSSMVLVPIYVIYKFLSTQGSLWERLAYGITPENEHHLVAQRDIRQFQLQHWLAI

[4] = target: T4, Transporter, Norepinephrine (NET) (Homo sapiens, UniProt P23975); assay: Radioligand binding, Transporter, Norepinephrine (NET) (Eurofin Discovery 204410)
T4 construct: host or cells: MDCK cells
T4 sequence (P23975 whole entry): as above

[5] = target: T1, Transporter, Dopamine (DAT); conditions: radioligand, Historical Values; cited from earlier work
[6] = target: T4, Transporter, Norepinephrine (NET); conditions: radioligand, Historical Values; cited from earlier work

[2H]C1([2H])NCC(c2ccc(Cl)c(Cl)c2)c2ccc(-c3ccc4ncnn4c3)cc21 (single isomer, unassigned) [Compound 12A, 7-([1,2,4]triazolo[1,5-a]pyridin-6-yl)-4-(3,4-dichlorophenyl)-1,2,3,4-tetrahydroisoquinoline-1,1-d2]
DAT, %inhibition 10 nM [1]: 53%
inhibition at 0.1 µM [1]: 92%

[2H]C1([2H])NC([2H])([2H])C([2H])(c2ccc(Cl)c(Cl)c2)c2ccc(-c3ccc4ncnn4c3)cc21 (single isomer, unassigned) [Compound 8A, 7-([1,2,4]triazolo[1,5-a]pyridin-6-yl)-4-(3,4-dichlorophenyl)-1,2,3,4-tetrahydroisoquinoline-1,1,3,3,4-d5]
DAT, %inhibition 10 nM [1]: 44%

CC(NC(C)(C)C)C(=O)c1cccc(Cl)c1 (centres unmarked) [Bupropion]
Lowest Occupancy DAT (DAT; at efficacious doses): 14% (Bupropion)
DAT occupancy (DAT; at various approved doses): 14-26%

CCOC[C@@H]1[C@@H](c2ccc(Cl)c(Cl)c2)C[C@@H]2CC[C@H]1N2C [tesofensine]
DAT occupancy (DAT; suggested as the optimal weight loss doses): 50%-70%
hyperphagia (PWS patients; PWS patients with the appropriate plasma drug level): controlled completely
patients with plasma drug levels exceeding the safety levels who discontinued due to adverse events (PWS patients; PWS patients): ⅔
efficacy (PWS patients; lowering the dosing for all patients): no efficacy

CC(=O)N1CCc2c(c3ccc(-n4ccc(OCc5ccc(F)cn5)cc4=O)cc3n2C)C1 [1-(2-acetyl-5-methyl-2,3,4,5-tetrahydro-1H-pyrido[4,3-b]indol-7-yl)-4-((5-fluoropyridin-2-yl)methoxy)pyridin-2(1H)-one]
contribution to MCHR1 antagonism (MCHR1 [2]): does not contribute to the pharmacology of MCHR1 antagonism

COC(=O)C(c1ccccc1)C1CCCCN1 (centres unmarked) [Methylphenidate]
Highest Occupancy DAT (DAT; at efficacious doses): 74% (Methylphenidate)
DAT occupancy (DAT; at various approved doses): 40-74%

[^125I] Tyr-S36057
Kd (MCHR1 [3]): 0.1 nM

COc1ccc(C(CN(C)C)C2(O)CCCCC2)cc1 (centres unmarked) [Venlafaxine]
Highest Occupancy NET (NET): 61% (Venlafaxine)
Lowest Occupancy NET (NET): 8% (Venlafaxine)
NET occupancies (NET): 8-61%

NC(=O)C[S+]([O-])C(c1ccccc1)c1ccccc1 (centres unmarked) [modafinil]
DAT occupancy (DAT; at various approved doses): 51-57%

[2H]C1([2H])NCc2cc(-c3ccc4ncnn4c3)ccc2C1([2H])c1ccc(Cl)c(Cl)c1 (single isomer, unassigned) [Compound 16A, 7-([1,2,4]triazolo[1,5-a]pyridin-6-yl)-4-(3,4-dichlorophenyl)-1,2,3,4-tetrahydroisoquinoline-3,3,4-d3]
DAT, %inhibition 10 nM [1]: 47%
inhibition at 0.1 µM [1]: 91%
inhibition at 0.01 µM ([4]; 10 nM compound): 38%
inhibition at 0.1 µM ([4]; 100 nM compound): 83%

[2H]C1([2H])NC([2H])([2H])C([2H])(c2ccc(Cl)c(Cl)c2)c2ccc(-c3ccc4ncnn4c3)cc21 (single isomer, unassigned) [Compound 8B, 7-([1,2,4]triazolo[1,5-a]pyridin-6-yl)-4-(3,4-dichlorophenyl)-1,2,3,4-tetrahydroisoquinoline-1,1,3,3,4-d5]
DAT, %inhibition 10 nM [1]: 4%
DAT, %inhibition 100 nM [1]: 75%
NET, %inhibition 10 nM ([4]; 10 nM compound): 37%
NET, %inhibition 100 nM ([4]; 100 nM compound): 71%

[2H]C1([2H])NCc2cc(-c3ccc4ncnn4c3)ccc2C1([2H])c1ccc(Cl)c(Cl)c1 (single isomer, unassigned) [Compound 16B, 7-([1,2,4]triazolo[1,5-a]pyridin-6-yl)-4-(3,4-dichlorophenyl)-1,2,3,4-tetrahydroisoquinoline-3,3,4-d3]
DAT, %inhibition 10 nM [1]: -2%

COC(=O)[C@H]1[C@@H](c2ccc(I)cc2)C[C@@H]2CC[C@H]1N2C [[^125I] RTI-55]
Kd [5]: 0.58 nM
Kd [6]: 24 nM

[2H]C1([2H])NCC(c2ccc(Cl)c(Cl)c2)c2ccc(-c3ccc4ncnn4c3)cc21 (single isomer, unassigned) [Compound 12B, 7-([1,2,4]triazolo[1,5-a]pyridin-6-yl)-4-(3,4-dichlorophenyl)-1,2,3,4-tetrahydroisoquinoline-1,1-d2]
DAT, %inhibition 10 nM [1]: 0%
DAT, %inhibition 100 nM [1]: 74%
NET, %inhibition 10 nM ([4]; 10 nM compound): 44%
NET, %inhibition 100 nM ([4]; 100 nM compound): 74%
